This note sets out measurements from publication PMC8950173 (Pharmaceuticals, 2022).

The target in data set [1] is T1, human recombinant HDAC6 (Homo sapiens, UniProt Q9UBN7).
T1 construct: purchased BPS Bioscience Inc. 50006
T1 sequence (Q9UBN7 1-1215): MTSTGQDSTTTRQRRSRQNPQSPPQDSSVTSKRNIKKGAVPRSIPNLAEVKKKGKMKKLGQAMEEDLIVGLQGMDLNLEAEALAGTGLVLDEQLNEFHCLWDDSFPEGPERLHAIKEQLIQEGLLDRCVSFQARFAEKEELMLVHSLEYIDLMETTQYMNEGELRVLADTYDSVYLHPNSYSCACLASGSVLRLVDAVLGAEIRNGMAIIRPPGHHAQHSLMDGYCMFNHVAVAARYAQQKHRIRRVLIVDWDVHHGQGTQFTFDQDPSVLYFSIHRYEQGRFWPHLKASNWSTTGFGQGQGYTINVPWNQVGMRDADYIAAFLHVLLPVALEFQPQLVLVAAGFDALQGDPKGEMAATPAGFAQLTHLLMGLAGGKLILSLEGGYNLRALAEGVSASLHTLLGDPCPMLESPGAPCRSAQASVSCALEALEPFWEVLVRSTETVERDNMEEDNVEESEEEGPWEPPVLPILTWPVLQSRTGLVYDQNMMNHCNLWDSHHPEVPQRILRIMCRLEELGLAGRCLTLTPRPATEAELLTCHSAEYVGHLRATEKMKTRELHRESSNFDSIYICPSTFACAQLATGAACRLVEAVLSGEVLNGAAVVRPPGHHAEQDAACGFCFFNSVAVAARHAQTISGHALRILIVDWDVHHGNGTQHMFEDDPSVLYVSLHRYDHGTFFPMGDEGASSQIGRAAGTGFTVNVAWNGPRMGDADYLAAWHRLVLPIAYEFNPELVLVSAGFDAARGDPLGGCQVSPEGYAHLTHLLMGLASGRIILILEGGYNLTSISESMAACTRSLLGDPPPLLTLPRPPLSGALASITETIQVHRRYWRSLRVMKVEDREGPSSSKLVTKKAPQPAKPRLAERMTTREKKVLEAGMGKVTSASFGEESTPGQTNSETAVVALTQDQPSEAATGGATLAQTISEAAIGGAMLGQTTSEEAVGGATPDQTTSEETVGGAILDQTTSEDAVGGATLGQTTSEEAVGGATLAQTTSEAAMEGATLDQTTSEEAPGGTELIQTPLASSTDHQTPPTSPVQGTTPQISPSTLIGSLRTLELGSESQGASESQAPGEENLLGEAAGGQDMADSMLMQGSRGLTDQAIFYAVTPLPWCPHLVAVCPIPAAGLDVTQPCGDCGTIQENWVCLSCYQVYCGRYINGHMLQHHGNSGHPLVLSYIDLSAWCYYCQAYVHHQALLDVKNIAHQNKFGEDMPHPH
The data set can be described thus: Inhibition assay HDAC6 (fluorogenic substrate ZMAL). The data set is classed as biochemical. Conditions: from IC50 values. As to the method: (§1) In vitro inhibitory activities against HDAC1−3 and HDAC6 were measured as previously published with minor modifications. […] Subsequently, 50 µL trypsin solution (0.4 mg/mL trypsin in buffer: 50 mM Tris−HCl, pH = 8.0, 100 mM NaCl) was added, followed by additional 30 min of incubation at 37 °C. […] All compounds were tested at least twice in duplicates.

Data set [2] in a line: Lipophilicity logD7.4, shake-flask method n-octanol/PBS. The data set is classed as physicochemical. Conditions: n-octanol/PBS pH 7.4, room temperature, n = 8. As for the experimental part:
Radiochemical stability of [^18F]BA3 was investigated in 0.9% NaCl solution (containing 10% EtOH) and in n-octanol at room temperature for 2 h. Samples were analysed by radio-RP-HPLC (see quality control). The LogD7.4 value of [^18F]BA3 was experimentally determined in n-octanol/phosphate-buffered saline (PBS, pH = 7.4) at room temperature by the shake-flask method as described previously. Briefly, small tracer amounts (~800 kBq) were added to a mixture of 3 mL n-octanol and 3 mL PBS. After shaking for 20 min, the samples were centrifuged (10,000 rpm, 5 min) and 1 mL aliquots of the organic as well as aqueous layer were taken and measured in a gamma counter (1480 WIZARD, Perkin Elmer, Turku, Finland). Another 1 mL aliquot of the organic layer was mixed with 2 mL n-octanol and 3 mL PBS and subjected to the same procedure until constant partition coefficient values had been obtained. The measurement was performed twice in quadruplicate.

In data set [3] the target is T2, human recombinant HDAC1 (Homo sapiens, UniProt Q13547).
T2 construct: purchased BPS Bioscience Inc. 50051
The data set can be described thus: Inhibition assay HDAC1 (fluorogenic substrate ZMAL). The data set is classed as biochemical. Conditions: 60 min preincubation at 25 °C. As to the method: as §1

Data set [4] deals with T3, human recombinant HDAC2 (Homo sapiens, UniProt Q92769).
T3 construct: purchased BPS Bioscience Inc. 50052
The data set can be described thus: Inhibition assay HDAC2 (fluorogenic substrate ZMAL). In kind it is biochemical. Conditions: 60 min preincubation at 25 °C. As to the method: as §1

Data set [5] in a line: Whole-body biodistribution derived from PET imaging. In kind it is in vivo. As for the experimental part:
For the time of the experiments, female CD-1 mice (n = 6; 8–15 weeks; 29–43 g) were kept in a dedicated climatic chamber with free access to water and food under a 12:12 h dark:light cycle at a constant temperature (24 °C). The animals were anaesthetized (Anaesthesia Unit U-410, agntho’s, Lidingö, Sweden) with isoflurane (2.0%, 300 mL/min) delivered in a 60% oxygen/40% air mixture (Gas Blender 100 Series, MCQ instruments, Rome, Italy) and their body temperature maintained at 37 °C with a thermal bed system. For baseline studies [^18F]BA3 was injected into the tail vein (n = 2; 6.0 ± 0.6 MBq in 150 µL isotonic saline; 9.2 ± 0.7 nmol/kg; Am: 21 GBq/μmol, EOS) followed by a dynamic 60 min PET/MR scan (Mediso nanoScan®, Budapest, Hungary). Permeability-glycoprotein efflux transporter studies consisted in pre-treatment via i.v. injection of cyclosporine A (50 mg/kg in NaCl/DMSO/kolliphor, 7:1:2, v/v; n = 2) or of vehicle (NaCl/DMSO/kolliphor, 7:1:2, v/v; n = 2) 30 min prior to [^18F]BA3 (6.0 ± 0.9 MBq; 4.9 ± 0.7 nmol/kg; Am: 32–37 GBq/μmol, EOS). Each PET image was corrected for random coincidences, dead time, scatter and attenuation (AC), based on a whole body (WB) MR scan. The reconstruction parameters for the list mode data were 3D-ordered subset expectation maximization (OSEM), 4 iterations, 6 subsets, energy window: 400–600 keV, coincidence mode: 1–5, ring difference: 81. The mice were positioned prone in a special mouse bed (heated up to 37 °C), with the head fixed to a mouth piece for the anaesthetic gas supply with isoflurane in 40% air and 60% oxygen. The PET data were collected by a continuous WB scan during the entire investigation. Following the 60 min PET scan a T1 weighted WB gradient echo sequence (TR/TE: 20/6.4 ms, NEX: 1, FA: 25, FOV: 64 × 64 mm, Matrix: 128 × 128, STh: 0.5 mm) was performed for AC and anatomical orientation. […]. The respective brain regions were identified using the mouse brain atlas template Ma-Benveniste-Mirrione-FDG. The activity data are expressed as mean SUV of the overall ROI.

T3 sequence (Q92769 whole entry): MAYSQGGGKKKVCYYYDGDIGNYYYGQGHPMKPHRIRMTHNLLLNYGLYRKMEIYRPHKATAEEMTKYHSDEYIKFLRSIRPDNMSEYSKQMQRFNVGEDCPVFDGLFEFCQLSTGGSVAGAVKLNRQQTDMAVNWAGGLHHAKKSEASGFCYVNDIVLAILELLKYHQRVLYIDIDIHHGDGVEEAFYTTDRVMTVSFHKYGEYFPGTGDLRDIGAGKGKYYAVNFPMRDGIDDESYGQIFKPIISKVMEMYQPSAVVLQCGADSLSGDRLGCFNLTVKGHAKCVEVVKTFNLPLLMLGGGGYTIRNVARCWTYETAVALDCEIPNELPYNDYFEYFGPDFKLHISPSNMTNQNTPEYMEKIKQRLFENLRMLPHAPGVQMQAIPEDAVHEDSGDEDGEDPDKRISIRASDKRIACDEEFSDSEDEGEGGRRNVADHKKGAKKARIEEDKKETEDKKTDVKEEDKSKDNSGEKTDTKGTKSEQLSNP
T2 sequence (Q13547 whole entry): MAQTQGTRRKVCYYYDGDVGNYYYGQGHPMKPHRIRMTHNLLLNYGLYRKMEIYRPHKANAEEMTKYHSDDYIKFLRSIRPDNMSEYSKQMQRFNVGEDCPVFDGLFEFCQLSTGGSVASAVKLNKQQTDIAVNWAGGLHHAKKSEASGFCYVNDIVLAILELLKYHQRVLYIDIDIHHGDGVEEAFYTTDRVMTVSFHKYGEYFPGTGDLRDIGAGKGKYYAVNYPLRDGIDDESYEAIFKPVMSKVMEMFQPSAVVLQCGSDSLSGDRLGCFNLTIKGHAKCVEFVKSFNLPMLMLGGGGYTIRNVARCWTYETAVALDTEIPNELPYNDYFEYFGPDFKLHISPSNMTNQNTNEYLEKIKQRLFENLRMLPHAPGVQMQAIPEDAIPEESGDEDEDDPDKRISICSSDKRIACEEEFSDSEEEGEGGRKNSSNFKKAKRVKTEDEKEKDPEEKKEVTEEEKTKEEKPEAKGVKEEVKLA

Take `CC([18F])C(=O)NCc1ccc(C(=O)Nc2cc(-c3ccsc3)ccc2N)cc1` (stereo not shown) [[^18F]BA3]: in data set [1], the “specificity ratio HDAC1 over HDAC6” value is given as more than 2080. In data set [2], this compound had a logD of 1.75 ± 0.16. In addition, the half-inhibitory concentration (IC50) in data set [3] was 4.8 ± 0.6 nM; in data set [4], 39.9 ± 3.2 nM. In data set [5] (blood, 5 min), the “activity in blood circulation SUV5 min” value worked out at 1.47 SUV. Moreover, the “activity in blood circulation SUV60 min” value in data set [5] (blood, 60 min) amounted to 1.10 SUV. The “initial uptake SUV5 min” value in data set [5] (spleen, kidney, muscle, liver and small intestines, 5 min) is listed as less than 4 SUV.
